{"source": "paper PMC2764262", "about": "(Experimental cell research, 2008)", "key": {"[1]": {"assay": "Circular dichroism spectroscopy, secondary structure", "assay_type": "physicochemical", "conditions": "1 mg/ml in Hanks balanced salt solution, 37 °C, up to day 6 (WT: by day 3)"}, "[2]": {"tested_on": "human brain microvascular endothelial cells (HBMEC)", "assay": "BrdU labeling assay, proliferation induced by FGF-2", "assay_type": "cell-based", "conditions": "FGF-2 20 ng/ml, 48 h"}, "FGF-2": {"tested_on": "FGF-2", "assay": "FGF-2 production by Western blotting", "assay_type": "cell-based, human", "conditions": "HBMEC, 5 µM peptide, 18 h; Western blot"}, "FGFR-1": {"tested_on": "FGFR-1", "assay": "FGFR-1 phosphorylation", "assay_type": "cell-based, human", "conditions": "HBMEC, 5 µM peptide, FGF-2 20 ng/ml 15 min; IP anti-FGFR-1, anti p-Tyr"}, "[3]": {"tested_on": "human brain microvascular endothelial cells (HBMEC)", "assay": "BrdU labeling assay, cell proliferation", "assay_type": "cell-based", "conditions": "25 µM peptide, 48 h, 0.1% FBS, no FGF-2"}, "caspase-3": {"tested_on": "caspase-3", "assay": "Cleaved caspase-3 expression by Western blotting", "assay_type": "cell-based, human", "conditions": "HBMEC, 5 µM peptide, 18 h, FGF-2 20 ng/ml"}, "[4]": {"assay": "Peptide solubility on aging", "conditions": "1 mg/ml in Hanks' Balanced Salt Solution, 37 °C, up to 6 days; O.D. 280 nm after centrifugation"}, "[5]": {"tested_on": "human brain microvascular endothelial cells (HBMEC)", "assay": "Pseudo-capillary sprouting, microcarrier culture in fibrin gel", "assay_type": "cell-based", "conditions": "HBMEC on microcarriers in fibrin gel, FGF-2 20 ng/ml, 5 µM peptide, day 2"}, "Akt": {"tested_on": "Akt", "assay": "Akt phosphorylation by Western blotting", "assay_type": "cell-based, human", "conditions": "HBMEC, 5 µM peptide, 30 min, FGF-2 20 ng/ml; Western blot"}}, "data": [{"substance": "E22Q: Synthetic Aβ (1–40) peptide bearing the E22Q (Dutch) mutation", "values": [{"measurement": "secondary structure by CD on further incubation", "setting": "[1]", "value": "the β-sheet content increased"}, {"measurement": "inhibition of FGF-2-induced BrdU incorporation", "setting": "[2]; 1 µM peptide", "value": 60, "unit": "%"}, {"measurement": "inhibition of FGF-2-induced BrdU incorporation", "setting": "[2]; concentrations higher than 1 µM (up to 25 µM)", "value": "> 90", "unit": "%"}, {"measurement": "FGF-2 expression", "setting": "FGF-2", "value": "decreased expression"}, {"measurement": "FGFR-1 phosphorylation in response to FGF-2", "setting": "FGFR-1", "value": "reduced phosphorylation to levels observed in quiescent cells"}, {"measurement": "inhibition of cell proliferation (BrdU incorporation)", "setting": "[3]", "value": "total inhibition"}, {"measurement": "caspase-3 activation with concomitant FGF-2 administration", "setting": "caspase-3", "value": "failed to prevent caspase-3 activation"}, {"measurement": "solubility relative to the other peptides", "setting": "[4]", "value": "lower values than those of WT"}, {"measurement": "reduction of pseudo-capillary sprouting area", "setting": "[5]", "value": "nearly suppressed"}, {"measurement": "FGF-2-induced Akt phosphorylation", "setting": "Akt", "value": "marked reduction"}]}]}
